Patent publication US20140323300A1, “HERBICIDAL COMPOUNDS” (SYNGENTA LIMITED, priority 2011, published 2014)

Key:
Format in all cases: in vivo
[1] = system: Echinochloa crus-galli (ECHCG); assay: Post-emergence glasshouse herbicide test; conditions: post-emergence (sprayed after 8 days cultivation), 1000 g/h, evaluated after 13 days, five point scale
Method: (§1) Seeds of a variety of test species are sown in standard soil in pots (Alopecurus myosuroides (ALOMY), Setaria faberi (SETFA), Echinochloa crus-galli (ECHCG), Solanum nigrum (SOLNI), Amaranthus retoflexus (AMARE), Ipomoea hederacea (IPOHE)). After cultivation for one day (pre-emergence) or after 8 days cultivation (post-emergence) under controlled conditions in a glasshouse (at 24/16° C., day/night; 14 hours light; 65% humidity), the plants are sprayed with an aqueous spray solution derived from the formulation of the technical active ingredient in acetone/water (50:50) solution containing 0.5% Tween 20 (polyoxyethelyene sorbitan monolaurate, CAS RN 9005-64-5). Compounds are applied at 1000 g/h. The test plants are then grown in a glasshouse under controlled conditions in a glasshouse (at 24/16° C., day/night; 14 hours light; 65% humidity) and watered twice daily. After 13 days for pre and post-emergence, the test is evaluated for the percentage damage caused to the plant. The biological activities are shown in the following table on a five point scale (5=80-100%; 4=60-79%; 3=40-59%; 2=20-39%; 1=0-19%).

[2] = system: Ipomoea hederacea (IPOHE); assay: Post-emergence glasshouse herbicide test; conditions: post-emergence (sprayed after 8 days cultivation), 1000 g/h, evaluated after 13 days, five point scale
Method: as §1

[3] = system: Alopecurus myosuroides (ALOMY); assay: Post-emergence glasshouse herbicide test; conditions: post-emergence (sprayed after 8 days cultivation), 1000 g/h, evaluated after 13 days, five point scale
Method: as §1

[4] = system: Solanum nigrum (SOLNI); assay: Post-emergence glasshouse herbicide test; conditions: post-emergence (sprayed after 8 days cultivation), 1000 g/h, evaluated after 13 days, five point scale
Method: as §1

[5] = system: Amaranthus retoflexus (AMARE); assay: Post-emergence glasshouse herbicide test; conditions: post-emergence (sprayed after 8 days cultivation), 1000 g/h, evaluated after 13 days, five point scale
Method: as §1

[6] = system: Setaria faberi (SETFA); assay: Post-emergence glasshouse herbicide test; conditions: post-emergence (sprayed after 8 days cultivation), 1000 g/h, evaluated after 13 days, five point scale
Method: as §1

[7] = system: Echinochloa crus-galli (ECHCG); assay: Pre-emergence glasshouse herbicide test; conditions: pre-emergence (sprayed after one day cultivation), 1000 g/h, evaluated after 13 days, five point scale
Method: as §1

[8] = system: Ipomoea hederacea (IPOHE); assay: Pre-emergence glasshouse herbicide test; conditions: pre-emergence (sprayed after one day cultivation), 1000 g/h, evaluated after 13 days, five point scale
Method: as §1

[9] = system: Alopecurus myosuroides (ALOMY); assay: Pre-emergence glasshouse herbicide test; conditions: pre-emergence (sprayed after one day cultivation), 1000 g/h, evaluated after 13 days, five point scale
Method: as §1

[10] = system: Solanum nigrum (SOLNI); assay: Pre-emergence glasshouse herbicide test; conditions: pre-emergence (sprayed after one day cultivation), 1000 g/h, evaluated after 13 days, five point scale
Method: as §1

[11] = system: Amaranthus retoflexus (AMARE); assay: Pre-emergence glasshouse herbicide test; conditions: pre-emergence (sprayed after one day cultivation), 1000 g/h, evaluated after 13 days, five point scale
Method: as §1

[12] = system: Setaria faberi (SETFA); assay: Pre-emergence glasshouse herbicide test; conditions: pre-emergence (sprayed after one day cultivation), 1000 g/h, evaluated after 13 days, five point scale
Method: as §1

Row | Compound | percentage damage caused to the plant, POST Application ECHCG [1] | percentage damage caused to the plant, POST Application IPOHE [2] | percentage damage caused to the plant, POST Application ALOMY [3] | percentage damage caused to the plant, POST Application SOLNI [4] | percentage damage caused to the plant, POST Application AMARE [5] | percentage damage caused to the plant, POST Application SETFA [6] | percentage damage caused to the plant, PRE Application ECHCG [7] | percentage damage caused to the plant, PRE Application IPOHE [8] | percentage damage caused to the plant, PRE Application ALOMY [9] | percentage damage caused to the plant, PRE Application SOLNI [10] | percentage damage caused to the plant, PRE Application AMARE [11] | percentage damage caused to the plant, PRE Application SETFA [12]
1 | Cc1cnn(-c2ccc(C(F)(F)F)nc2C)c(=O)c1O [Compound 1.020] | 5 (5=80-100%) | 5 (5=80-100%) | 3 (3=40-59%) | 5 (5=80-100%) | 5 (5=80-100%) | 5 (5=80-100%) | 5 (5=80-100%) | 5 (5=80-100%) | 3 (3=40-59%) | 5 (5=80-100%) | 5 (5=80-100%) | 5 (5=80-100%)
2 | C=Cc1cnn(-c2ccc(C(F)(F)F)nc2C)c(=O)c1O [Compound 1.021] | 5 (5=80-100%) | 5 (5=80-100%) | 3 (3=40-59%) | 5 (5=80-100%) | 5 (5=80-100%) | 5 (5=80-100%) | 5 (5=80-100%) | 5 (5=80-100%) | 3 (3=40-59%) | 5 (5=80-100%) | 5 (5=80-100%) | 5 (5=80-100%)
3 | CCc1cnn(-c2ccc(C(F)(F)F)nc2C)c(=O)c1O [Compound 1.022] | 5 (5=80-100%) | 4 (4=60-79%) | 4 (4=60-79%) | 5 (5=80-100%) | 5 (5=80-100%) | 4 (4=60-79%) | 5 (5=80-100%) | 4 (4=60-79%) | 4 (4=60-79%) | 5 (5=80-100%) | 5 (5=80-100%) | 4 (4=60-79%)
4 | Cc1nc(C(F)(F)F)ccc1-n1ncc(Br)c(O)c1=O [Compound 1.023] | 5 (5=80-100%) | 5 (5=80-100%) | 3 (3=40-59%) | 5 (5=80-100%) | 5 (5=80-100%) | 5 (5=80-100%) | 5 (5=80-100%) | 5 (5=80-100%) | 3 (3=40-59%) | 5 (5=80-100%) | 5 (5=80-100%) | 5 (5=80-100%)
5 | C=C(C)c1cnn(-c2ccc(C(F)(F)F)nc2C)c(=O)c1O [Compound 1.024] | 5 (5=80-100%) | 5 (5=80-100%) | 5 (5=80-100%) | 5 (5=80-100%) | 5 (5=80-100%) | 5 (5=80-100%) | 5 (5=80-100%) | 5 (5=80-100%) | 5 (5=80-100%) | 5 (5=80-100%) | 5 (5=80-100%) | 5 (5=80-100%)
6 | CSc1cnn(-c2ccc(C(F)(F)F)nc2C)c(=O)c1O [Compound 1.025] | 5 (5=80-100%) | 5 (5=80-100%) | 2 (2=20-39%) | 5 (5=80-100%) | 5 (5=80-100%) | 5 (5=80-100%) | 5 (5=80-100%) | 5 (5=80-100%) | 2 (2=20-39%) | 5 (5=80-100%) | 5 (5=80-100%) | 5 (5=80-100%)
7 | Cc1c(-n2ncc(C#N)c(O)c2=O)ccc(S(C)(=O)=O)c1C1=NOCC1 [Compound 1.026] | 5 (5=80-100%) | 5 (5=80-100%) | 1 (1=0-19%) | 5 (5=80-100%) | 5 (5=80-100%) | 5 (5=80-100%) | 5 (5=80-100%) | 5 (5=80-100%) | 1 (1=0-19%) | 5 (5=80-100%) | 5 (5=80-100%) | 5 (5=80-100%)
8 | Cc1nc(C(F)(F)F)ccc1-n1nccc(O)c1=O.O=C(O)C(F)(F)F [Compound 1.027] | 5 (5=80-100%) | 5 (5=80-100%) | 1 (1=0-19%) | 5 (5=80-100%) | 4 (4=60-79%) | 4 (4=60-79%) | 5 (5=80-100%) | 5 (5=80-100%) | 1 (1=0-19%) | 5 (5=80-100%) | 4 (4=60-79%) | 4 (4=60-79%)
9 | Cc1nc(C(F)(F)F)ccc1-n1ncc(S(C)(=O)=O)c(O)c1=O [Compound 1.029] | 4 (4=60-79%) | 2 (2=20-39%) | 1 (1=0-19%) | 4 (4=60-79%) | 3 (3=40-59%) | 4 (4=60-79%) | 4 (4=60-79%) | 2 (2=20-39%) | 1 (1=0-19%) | 4 (4=60-79%) | 3 (3=40-59%) | 4 (4=60-79%)
10 | Cc1nc(C(F)(F)F)ccc1-n1ncc([S+](C)[O-])c(O)c1=O (stereo not drawn) [Compound 1.030] | 5 (5=80-100%) | 3 (3=40-59%) | 2 (2=20-39%) | 5 (5=80-100%) | 4 (4=60-79%) | 5 (5=80-100%) | 5 (5=80-100%) | 3 (3=40-59%) | 2 (2=20-39%) | 5 (5=80-100%) | 4 (4=60-79%) | 5 (5=80-100%)
